Laboratory results reported in US20080039422A1, “Vitamin B12-Containing Compositions and Methods of Use” (Transition Therapeutics Inc., priority 2004, published 2008).

Assay: Hydroxocobalamin-containing solutions
Assay type: physicochemical
Method: A variety of solutions containing hydroxocobalamin (HO-Cbl) were tested. The excipients tested in these studies were the same as those used above: (a) 15% ethanol; (b) 20% ethanol; (c) 20% propylene glycol; (d) 40% propylene glycol; (e) 15% ethanol and 20% propylene glycol; and (f) 20% ethanol and 40% propylene glycol. Here, however, three challenge amounts were tested (˜16, 40, and 81 mg/ml HO-Cbl) and the time course was slightly longer, with measurements being made on Day 3 and Day 5. The OH-Cbl was solubilized at room temperature, as it dissolved readily in the excipients tested. If necessary or desired, the solutions can be mixed by shaking briefly (using, for example, a vortex or other agitation for a few seconds (e.g., 5-20 seconds) to a minute or so (e.g., 1-3 minutes). Following suitable dilution, the absorbance at […] was measured.

C/C1=C2/[N-][C@H]([C@H](CC(N)=O)[C@@]2(C)CCC(=O)NC[C@@H](C)OP(=O)([O-])O[C@H]2[C@@H](O)[C@@H](n3cnc4cc(C)c(C)cc43)O[C@@H]2CO)[C@]2(C)N=C(/C(C)=C3N=C(/C=C4N=C1[C@@H](CCC(N)=O)C\4(C)C)[C@@H](CCC(N)=O)[C@]\3(C)CC(N)=O)[C@@H](CCC(N)=O)[C@]2(C)CC(N)=O.[Co+3].[OH-] [OH-Cbl, hydroxocobalamin]
concentrations of HO-Cbl versus control (water) values (any of the solutions tested, any of the three challenge amounts): did not substantially exceed control values
Conc of OH-Cbl (challenge 16.18 mg/mL, ethanol 0%, PG 0%, Day 0): 0.00 mg/mL
Conc of OH-Cbl (challenge 16.18 mg/mL, ethanol 0%, PG 0%, Day 3): 16.83 mg/mL
Conc of OH-Cbl (challenge 16.18 mg/mL, ethanol 0%, PG 0%, Day 5): 16.93 mg/mL
Conc of OH-Cbl (challenge 16.18 mg/mL, ethanol 0%, PG 20%, Day 0): 0.00 mg/mL
Conc of OH-Cbl (challenge 16.18 mg/mL, ethanol 0%, PG 20%, Day 3): 17.10 mg/mL
Conc of OH-Cbl (challenge 16.18 mg/mL, ethanol 0%, PG 20%, Day 5): 17.31 mg/mL
Conc of OH-Cbl (challenge 16.18 mg/mL, ethanol 0%, PG 40%, Day 0): 0.00 mg/mL
Conc of OH-Cbl (challenge 16.18 mg/mL, ethanol 0%, PG 40%, Day 3): 16.78 mg/mL
Conc of OH-Cbl (challenge 16.18 mg/mL, ethanol 0%, PG 40%, Day 5): 17.10 mg/mL
Conc of OH-Cbl (challenge 16.18 mg/mL, ethanol 15%, PG 0%, Day 0): 0.00 mg/mL
Conc of OH-Cbl (challenge 16.18 mg/mL, ethanol 15%, PG 0%, Day 3): 16.67 mg/mL
Conc of OH-Cbl (challenge 16.18 mg/mL, ethanol 15%, PG 0%, Day 5): 17.06 mg/mL
Conc of OH-Cbl (challenge 16.18 mg/mL, ethanol 15%, PG 20%, Day 0): 0.00 mg/mL
Conc of OH-Cbl (challenge 16.18 mg/mL, ethanol 15%, PG 20%, Day 3): 16.94 mg/mL
Conc of OH-Cbl (challenge 16.18 mg/mL, ethanol 15%, PG 20%, Day 5): 17.44 mg/mL
Conc of OH-Cbl (challenge 16.18 mg/mL, ethanol 20%, PG 0%, Day 0): 0.00 mg/mL
Conc of OH-Cbl (challenge 16.18 mg/mL, ethanol 20%, PG 0%, Day 3): 17.05 mg/mL
Conc of OH-Cbl (challenge 16.18 mg/mL, ethanol 20%, PG 0%, Day 5): 17.14 mg/mL
Conc of OH-Cbl (challenge 16.18 mg/mL, ethanol 20%, PG 40%, Day 0): 0.00 mg/mL
Conc of OH-Cbl (challenge 16.18 mg/mL, ethanol 20%, PG 40%, Day 3): 16.25 mg/mL
Conc of OH-Cbl (challenge 16.18 mg/mL, ethanol 20%, PG 40%, Day 5): 16.59 mg/mL
Conc of OH-Cbl (challenge 40.45 mg/mL, ethanol 0%, PG 0%, Day 0): 0.00 mg/mL
Conc of OH-Cbl (challenge 40.45 mg/mL, ethanol 0%, PG 0%, Day 3): 41.90 mg/mL
Conc of OH-Cbl (challenge 40.45 mg/mL, ethanol 0%, PG 0%, Day 5): 41.68 mg/mL
Conc of OH-Cbl (challenge 40.45 mg/mL, ethanol 0%, PG 20%, Day 0): 0.00 mg/mL
Conc of OH-Cbl (challenge 40.45 mg/mL, ethanol 0%, PG 20%, Day 3): 41.68 mg/mL
Conc of OH-Cbl (challenge 40.45 mg/mL, ethanol 0%, PG 20%, Day 5): 41.47 mg/mL
Conc of OH-Cbl (challenge 40.45 mg/mL, ethanol 0%, PG 40%, Day 0): 0.00 mg/mL
Conc of OH-Cbl (challenge 40.45 mg/mL, ethanol 0%, PG 40%, Day 3): 41.79 mg/mL
Conc of OH-Cbl (challenge 40.45 mg/mL, ethanol 0%, PG 40%, Day 5): 41.79 mg/mL
Conc of OH-Cbl (challenge 40.45 mg/mL, ethanol 15%, PG 0%, Day 0): 0.00 mg/mL
Conc of OH-Cbl (challenge 40.45 mg/mL, ethanol 15%, PG 0%, Day 3): 41.15 mg/mL
Conc of OH-Cbl (challenge 40.45 mg/mL, ethanol 15%, PG 0%, Day 5): 41.47 mg/mL
Conc of OH-Cbl (challenge 40.45 mg/mL, ethanol 15%, PG 20%, Day 0): 0.00 mg/mL
Conc of OH-Cbl (challenge 40.45 mg/mL, ethanol 15%, PG 20%, Day 3): 41.04 mg/mL
Conc of OH-Cbl (challenge 40.45 mg/mL, ethanol 15%, PG 20%, Day 5): 42.22 mg/mL
Conc of OH-Cbl (challenge 40.45 mg/mL, ethanol 20%, PG 0%, Day 0): 0.00 mg/mL
Conc of OH-Cbl (challenge 40.45 mg/mL, ethanol 20%, PG 0%, Day 3): 41.58 mg/mL
Conc of OH-Cbl (challenge 40.45 mg/mL, ethanol 20%, PG 0%, Day 5): 41.04 mg/mL
Conc of OH-Cbl (challenge 40.45 mg/mL, ethanol 20%, PG 40%, Day 0): 0.00 mg/mL
Conc of OH-Cbl (challenge 40.45 mg/mL, ethanol 20%, PG 40%, Day 3): 41.36 mg/mL
Conc of OH-Cbl (challenge 40.45 mg/mL, ethanol 20%, PG 40%, Day 5): 41.58 mg/mL
Conc of OH-Cbl (challenge 80.90 mg/mL, ethanol 0%, PG 0%, Day 0): 0.00 mg/mL
Conc of OH-Cbl (challenge 80.90 mg/mL, ethanol 0%, PG 0%, Day 3): 81.02 mg/mL
Conc of OH-Cbl (challenge 80.90 mg/mL, ethanol 0%, PG 0%, Day 5): 80.80 mg/mL
Conc of OH-Cbl (challenge 80.90 mg/mL, ethanol 0%, PG 20%, Day 0): 0.00 mg/mL
Conc of OH-Cbl (challenge 80.90 mg/mL, ethanol 0%, PG 20%, Day 3): 83.80 mg/mL
Conc of OH-Cbl (challenge 80.90 mg/mL, ethanol 0%, PG 20%, Day 5): 82.09 mg/mL
Conc of OH-Cbl (challenge 80.90 mg/mL, ethanol 0%, PG 40%, Day 0): 0.00 mg/mL
Conc of OH-Cbl (challenge 80.90 mg/mL, ethanol 0%, PG 40%, Day 3): 81.87 mg/mL
Conc of OH-Cbl (challenge 80.90 mg/mL, ethanol 0%, PG 40%, Day 5): 82.73 mg/mL
Conc of OH-Cbl (challenge 80.90 mg/mL, ethanol 15%, PG 0%, Day 0): 0.00 mg/mL
Conc of OH-Cbl (challenge 80.90 mg/mL, ethanol 15%, PG 0%, Day 3): 82.73 mg/mL
Conc of OH-Cbl (challenge 80.90 mg/mL, ethanol 15%, PG 0%, Day 5): 82.94 mg/mL
Conc of OH-Cbl (challenge 80.90 mg/mL, ethanol 15%, PG 20%, Day 0): 0.00 mg/mL
Conc of OH-Cbl (challenge 80.90 mg/mL, ethanol 15%, PG 20%, Day 3): 81.23 mg/mL
Conc of OH-Cbl (challenge 80.90 mg/mL, ethanol 15%, PG 20%, Day 5): 80.16 mg/mL
Conc of OH-Cbl (challenge 80.90 mg/mL, ethanol 20%, PG 0%, Day 0): 0.00 mg/mL
Conc of OH-Cbl (challenge 80.90 mg/mL, ethanol 20%, PG 0%, Day 3): 82.09 mg/mL
Conc of OH-Cbl (challenge 80.90 mg/mL, ethanol 20%, PG 0%, Day 5): 80.59 mg/mL
Conc of OH-Cbl (challenge 80.90 mg/mL, ethanol 20%, PG 40%, Day 0): 0.00 mg/mL
Conc of OH-Cbl (challenge 80.90 mg/mL, ethanol 20%, PG 40%, Day 3): 82.94 mg/mL
Conc of OH-Cbl (challenge 80.90 mg/mL, ethanol 20%, PG 40%, Day 5): 82.73 mg/mL
